The record followed here is ChEMBL document CHEMBL4431367, “Role of a gitogenin-type steroidal saponin (3-O-β-d-glucopyranosyl (1→2)-β-d-glucopyranosyl (1→4)-β-d-galactopyranoside-25R,5α-spirostane-2α,3β-diol), isolated from the leaves of Malvastrum coromandelianum in regulating thyrotoxicosis in rats” (2016).

Molecules are shown by their SMILES. Active and inactive are the calls of the source. The calls are words filed in the database; no cut-off is given here.

The species entered for assay [1] is Rattus norvegicus. The experiment in a line: animal or person. Conditions: Wistar, po, read-out: INH.
Description: Antithyroid activity in L-T4-induced Wistar albino rat model of hyperthyroidism assessed as reduction in T3 level at 10 mg/kg, po qd post 12 days of L-T4 challenge measured after 15 days in presence of [125I]-T3 by RIA
The species entered for assay [2] is Rattus norvegicus. The experiment in a line: animal or person. Conditions: Wistar, po, read-out: INH. This is another data set of the same source.
Description: Antithyroid activity in L-T4-induced Wistar albino rat model of hyperthyroidism assessed as reduction in T4 level at 10 mg/kg, po qd post 12 days of L-T4 challenge measured after 15 days in presence of [125I]-T4 by RIA
Assay [3] is filed under the species Rattus norvegicus. The experiment in a line: animal or person. Conditions: Wistar, po, read-out: INH. The source holds these as a separate data set.
Description: Antithyroid activity in L-T4-induced Wistar albino rat model of hyperthyroidism assessed as inhibition of hepatic 5'-monodeiodinase 1 activity by measuring reduction in T3 level using T4 as substrate at 10 mg/kg, po qd post 12 days of L-T4 challenge measured after 15 days in presence of [125I]-T3 by RIA
Assay [4] relates to Rattus norvegicus. Nature of the assay: Antithyroid activity in L-T4-induced Wistar albino rat model of hyperthyroidism assessed as inhibition of hepatic 5'-monodeiodinase 1 activity using T4 as substrate at 20 mg/kg, po qd post 12 days of L-T4 challenge measured after 15 days in presence of [125I]-T3 by RIA. Type of assay: functional, organism-based.
In assay [5] the test system is Rattus norvegicus. Nature of the assay: Antioxidant activity in L-T4-induced Wistar albino rat model of hyperthyroidism assessed as lipid peroxidation level by measuring MDA formation per mg protein at 10 mg/kg, po qd post 12 days of L-T4 challenge measured after 15 days by TBARS assay (reference value: 1.34 +/- 0.19 nM/hr). In kind it is functional.
Assay [6] deals with Rattus norvegicus. Nature of the assay: Antioxidant activity in L-T4-induced Wistar albino rat model of hyperthyroidism assessed as lipid peroxidation level by measuring MDA formation per mg protein at 20 mg/kg, po qd post 12 days of L-T4 challenge measured after 15 days by TBARS assay (reference value: 1.34 +/- 0.19 nM/hr). Type of assay: functional.
Assay [7] relates to Rattus norvegicus. The experiment in a line: Antioxidant activity in L-T4-induced Wistar albino rat model of hyperthyroidism assessed as lipid peroxidation level by measuring MDA formation per mg protein at 30 mg/kg, po qd post 12 days of L-T4 challenge measured after 15 days by TBARS assay (reference value: 1.34 +/- 0.19 nM/hr). Type of assay: functional.
Assay [8] concerns Rattus norvegicus. Nature of the assay: Antithyroid activity in L-T4-induced Wistar albino rat model of hyperthyroidism assessed as serum T3 level at 10 mg/kg, po qd post 12 days of L-T4 challenge measured after 15 days in presence of [125I]-T3 by RIA (reference value: 2.31 +/- 0.53 ng/ml). In kind it is functional.
Assay [9] deals with Rattus norvegicus. Nature of the assay: Antithyroid activity in L-T4-induced Wistar albino rat model of hyperthyroidism assessed as serum T3 level at 20 mg/kg, po qd post 12 days of L-T4 challenge measured after 15 days in presence of [125I]-T3 by RIA (reference value: 2.31 +/- 0.53 ng/ml). Type of assay: functional.
The subject of assay [10] is Rattus norvegicus. Nature of the assay: Antithyroid activity in L-T4-induced Wistar albino rat model of hyperthyroidism assessed as serum T4 level at 20 mg/kg, po qd post 12 days of L-T4 challenge measured after 15 days in presence of [125I]-T4 by RIA (reference value: 92.14 +/- 3.45 ng/ml). In kind it is functional.
Assay [11] relates to Rattus norvegicus. Nature of the assay: Antithyroid activity in L-T4-induced Wistar albino rat model of hyperthyroidism assessed as serum T3 level at 30 mg/kg, po qd post 12 days of L-T4 challenge measured after 15 days in presence of [125I]-T3 by RIA (reference value: 2.31 +/- 0.53 ng/ml). Type of assay: functional.
Assay [12] deals with Rattus norvegicus. The experiment in a line: Antithyroid activity in L-T4-induced Wistar albino rat model of hyperthyroidism assessed as serum T4 level at 10 mg/kg, po qd post 12 days of L-T4 challenge measured after 15 days in presence of [125I]-T4 by RIA (reference value: 92.14 +/- 3.45 ng/ml). Type of assay: functional.
For assay [13], the system named is Rattus norvegicus. Nature of the assay: Antithyroid activity in L-T4-induced Wistar albino rat model of hyperthyroidism assessed as serum T4 level at 30 mg/kg, po qd post 12 days of L-T4 challenge measured after 15 days in presence of [125I]-T4 by RIA (reference value: 92.14 +/- 3.45 ng/ml). In kind it is functional.
Assay [14] relates to Rattus norvegicus. Nature of the assay: Antithyroid activity in L-T4-induced Wistar albino rat model of hyperthyroidism assessed as reduction in T3 level at 20 mg/kg, po qd post 12 days of L-T4 challenge measured after 15 days in presence of [125I]-T3 by RIA. Type of assay: functional.
The test system of assay [15] is Rattus norvegicus. Nature of the assay: Antithyroid activity in L-T4-induced Wistar albino rat model of hyperthyroidism assessed as decrease in body weight loss at 20 mg/kg, po qd post 12 days of L-T4 challenge measured after 15 days. Type of assay: functional, organism-based.
Assay [16] deals with Rattus norvegicus. Nature of the assay: Antioxidant activity in L-T4-induced Wistar albino rat model of hyperthyroidism assessed as increase in superoxide dismutase activity by measuring pyrogallol oxidization per mg protein at 20 mg/kg, po qd administered post 12 days of L-T4 challenge measured on day 28. Type of assay: functional, organism-based.
Assay [17] deals with Rattus norvegicus. Nature of the assay: Antioxidant activity in L-T4-induced Wistar albino rat model of hyperthyroidism assessed as increase in catalase activity by measuring H2O2 utilization per mg protein at 20 mg/kg, po qd administered post 12 days of L-T4 challenge measured every 5 secs for 30 secs on day 28 by spectrophotometric method. In kind it is functional, organism-based.

The subject of assay [18] is Rattus norvegicus. Nature of the assay: Antioxidant activity in L-T4-induced Wistar albino rat model of hyperthyroidism assessed as reduction in total GSH content per mg of protein at 20 mg/kg, po qd administered post 12 days of L-T4 challenge measured after 15 days by Ellman's method. Type of assay: functional, organism-based. On the technique in general: In Ellman's method for cholinesterases, released thiocholine reacts with DTNB.

Assay [19] deals with Rattus norvegicus. Nature of the assay: Antithyroid activity in L-T4-induced Wistar albino rat model of hyperthyroidism assessed as reduction in glucose-6-phosphatase activity at 20 mg/kg, po qd post 12 days of L-T4 challenge measured after 15 days. Type of assay: functional, organism-based.
Assay [20] relates to Rattus norvegicus. Nature of the assay: Antithyroid activity in L-T4-induced Wistar albino rat model of hyperthyroidism assessed as reduction in T4 level at 20 mg/kg, po qd post 12 days of L-T4 challenge measured after 15 days in presence of [125I]-T4 by RIA. Type of assay: functional.
The test system of assay [21] is Rattus norvegicus. Nature of the assay: Antithyroid activity in L-T4-induced Wistar albino rat model of hyperthyroidism assessed as inhibition of hepatic 5'-monodeiodinase 1 activity by measuring reduction in T3 level using T4 as substrate at 20 mg/kg, po qd post 12 days of L-T4 challenge measured after 15 days in presence of [125I]-T3 by RIA. Type of assay: functional.

In the case of `CCCc1cc(=O)[nH]c(=S)[nH]1` [PROPYLTHIOURACIL], the inhibition in vivo at 10 mg/kg in the assay filed under Rattus norvegicus [1] was found to be 56.5%; in the assay listed under Rattus norvegicus [2], 81%; in the assay listed under Rattus norvegicus [3], 59%.

On to `C[C@@H]1CC[C@@]2(OC1)O[C@H]1C[C@H]3[C@@H]4CC[C@H]5C[C@@H](O[C@@H]6O[C@H](CO)[C@H](O)[C@H](O[C@@H]7O[C@H](CO)[C@@H](O)[C@H](O)[C@H]7O[C@@H]7O[C@H](CO)[C@@H](O)[C@H](O)[C@H]7O)[C@H]6O)[C@H](O)C[C@]5(C)[C@H]4CC[C@]3(C)[C@H]1[C@@H]2C`, for which, in the assay with Rattus norvegicus [4], the inhibition result is “Active”. Besides, the Activity came to 0.871 nM/h in the assay with Rattus norvegicus [5]; 0.312 nM/h in the assay on Rattus norvegicus [6]; 0.976 nM/h in the assay with Rattus norvegicus [7]; 1.91 ng/mL in the assay with Rattus norvegicus [8]; 0.31 ng/mL in the assay with Rattus norvegicus [9]; 38.7 ng/mL with Rattus norvegicus [10]. For the same compound, the Activity stood at 0.99 ng/mL with Rattus norvegicus [11], 79.81 ng/mL in the assay with Rattus norvegicus [12] and 49.85 ng/mL in the assay with Rattus norvegicus [13]. For the same compound, the values for the inhibition in vivo at 20 mg/kg with Rattus norvegicus [14], with Rattus norvegicus [20] and with Rattus norvegicus [21] were 56%, 88.8% and 75.1%, respectively. For the same compound, the outcome in the assay with Rattus norvegicus [15], with Rattus norvegicus [16], with Rattus norvegicus [17], in the assay with Rattus norvegicus [18] and in the assay on Rattus norvegicus [19] was Active.
